According to PubChem BioAssay (NCI):
Where “and” joins values, the source holds several entries; their conditions need not be identical. Equal entries are not always repeated.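 Growth conditions: 96-well plates. Treatment: test compound, 48 hours, 5 concentrations. Analysis: linear interpolation between bracketing concentrations; unreached endpoints set to highest concentration. TGI marks complete inhibition of growth.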

How the values were obtained:
Assay in all cases: DTP human tumour cell line panel, 48 h
[1] = tested on: MDA-MB-435
[2] = tested on: SK-OV-3 ovarian
[3] = tested on: HOP-92 NSCLC
[4] = tested on: HCT-116 colon
[5] = tested on: CAKI-1 renal
[6] = tested on: HL-60(TB) leukemia
[7] = tested on: MDA-MB-231 breast
[8] = tested on: SN12C renal
[9] = tested on: T-47D breast
[10] = tested on: 786-0 renal
[11] = tested on: SF-268 CNS
[12] = tested on: KM12 colon
[13] = tested on: IGROV1 ovarian
[14] = tested on: NCI-H226 lung
[15] = tested on: HOP-62 NSCLC
[16] = tested on: ACHN renal
[17] = tested on: NCI-H23 lung

Cc1cc(S(=O)(=O)n2ccnc2Oc2ccccc2)c(SSc2cc(Cl)c(C)cc2S(=O)(=O)n2ccnc2Oc2ccccc2)cc1Cl
TGI [1]: > 100 µM
TGI [2]: > 100 µM
TGI [3]: > 100 µM
TGI [4]: > 100 µM
TGI [5]: > 100 µM
TGI [6]: > 100 µM
TGI [7]: > 100 µM
TGI [8]: > 100 µM
TGI [9]: > 100 µM
TGI [10]: > 100 µM
TGI [11]: > 100 µM
TGI [12]: > 100 µM
TGI [13]: > 100 µM
TGI [14]: > 100 µM

CC1=C(C#N)C2C(=C(N)Oc3ccccc32)C(N)=N1 (centres undefined)
TGI [1]: > 100 µM
TGI [2]: > 100 µM
TGI [4]: > 100 µM
TGI [5]: 53.9 µM
TGI [6]: > 100 µM
TGI [7]: 66.6 µM
TGI [8]: 72.8 µM
TGI [15]: > 100 µM
TGI [9]: 78.2 µM
TGI [10]: 60.9 µM
TGI [11]: 67.4 µM
TGI [12]: 71.2 µM
TGI [13]: 76.7 µM
TGI [16]: 81.8 µM
TGI [14]: 66.2 µM

O=C(/C=C\c1ccccc1)Oc1ccc(/C=C2\CCCCC2=O)cc1
TGI [1]: 84.6 µM
TGI [3]: > 100 µM
TGI [4]: > 100 µM
TGI [5]: 97.9 µM
TGI [6]: 35.2 µM
TGI [7]: > 100 µM
TGI [8]: > 100 µM
TGI [15]: > 100 µM
TGI [9]: > 100 µM
TGI [10]: > 100 µM
TGI [11]: > 100 µM
TGI [12]: > 100 µM
TGI [13]: > 100 µM
TGI [16]: > 100 µM
TGI [17]: > 100 µM

Cc1cc2c(cc1C)C(=O)C1(C2)Cc2c(ccc(C)c2C)C1=O (centres undefined)
TGI [1]: > 100 µM
TGI [3]: > 100 µM
TGI [4]: > 100 µM
TGI [5]: > 100 µM
TGI [6]: > 100 µM
TGI [7]: > 100 µM
TGI [8]: > 100 µM
TGI [9]: > 100 µM
TGI [10]: > 100 µM
TGI [11]: > 100 µM
TGI [12]: > 100 µM
TGI [13]: > 100 µM
TGI [16]: > 100 µM
TGI [14]: > 100 µM

Cc1ccc(CC2(OCCN(C)C)CCC(C(C)(C)C)CC2)cc1 (centres undefined)
TGI [1]: 5.79 µM and 5.96 µM
TGI [2]: 20.9 µM and 23.6 µM
TGI [4]: 6.73 µM and 6.24 µM
TGI [5]: 17.7 µM and 15.3 µM
TGI [6]: 6.24 µM and 5.02 µM
TGI [7]: 19 µM and 18.8 µM
TGI [8]: 17.6 µM and 17.8 µM
TGI [15]: 11.1 µM and 8.4 µM
TGI [9]: 8.34 µM and 6.33 µM
TGI [10]: 4.45 µM and 3.7 µM
TGI [11]: 27.9 µM and 23.5 µM
TGI [12]: 13 µM and 10.4 µM
TGI [13]: 19.4 µM and 21.5 µM
TGI [16]: 19.1 µM and 20.5 µM
TGI [14]: 15.6 µM and 15.4 µM
TGI [17]: 25.6 µM and 24.4 µM

O=C(Nc1nnc(-c2c(Cl)c(Cl)c(Cl)c(Cl)c2-c2nc3cc(C(=O)c4ccccc4)ccc3[nH]2)o1)c1ccccc1
TGI [1]: 30.8 µM
TGI [2]: 52.2 µM
TGI [3]: 44.5 µM
TGI [4]: 87.3 µM
TGI [5]: > 100 µM
TGI [6]: 65.3 µM
TGI [7]: 33.7 µM
TGI [8]: 31.3 µM
TGI [15]: 26.3 µM
TGI [9]: 54.7 µM
TGI [10]: 30.5 µM
TGI [12]: > 100 µM
TGI [13]: 42 µM
TGI [16]: 55.6 µM
TGI [14]: 35.5 µM
TGI [17]: 54.2 µM

COC(=O)n1c(=O)n(-c2ccccc2)c(=O)n1C(=O)Nc1ccccc1
TGI [1]: > 100 µM
TGI [2]: > 100 µM
TGI [3]: > 100 µM
TGI [4]: > 100 µM
TGI [5]: > 100 µM
TGI [6]: > 100 µM
TGI [7]: > 100 µM
TGI [15]: > 100 µM
TGI [9]: > 100 µM
TGI [10]: > 100 µM
TGI [11]: > 100 µM
TGI [12]: > 100 µM
TGI [13]: > 100 µM
TGI [16]: > 100 µM
TGI [14]: > 100 µM
TGI [17]: > 100 µM

CC(C)Oc1ccc(CNC2=NCCO2)c2ccccc12
TGI [1]: 24.2 µM
TGI [2]: 30.9 µM
TGI [4]: 27 µM
TGI [6]: 23.6 µM
TGI [7]: 28.9 µM
TGI [8]: 32.2 µM
TGI [15]: 30.8 µM
TGI [9]: 31.3 µM
TGI [10]: 26.4 µM
TGI [11]: 45.7 µM
TGI [12]: 34 µM
TGI [13]: 27.9 µM
TGI [16]: 27.7 µM
TGI [14]: 33 µM
TGI [17]: 30.2 µM

C/C=C/C(C#N)(Cc1ccccc1)OP1(=O)OC(c2ccccc2)C(C)N1C (centres undefined)
TGI [1]: > 100 µM
TGI [2]: > 100 µM
TGI [3]: > 100 µM
TGI [4]: > 100 µM
TGI [5]: > 100 µM
TGI [6]: 41.9 µM
TGI [7]: > 100 µM
TGI [8]: > 100 µM
TGI [15]: > 100 µM
TGI [9]: > 100 µM
TGI [10]: > 100 µM
TGI [11]: > 100 µM
TGI [12]: > 100 µM
TGI [13]: > 100 µM
TGI [16]: > 100 µM
TGI [17]: > 100 µM

CN1CCCC1=NC#N
TGI [1]: > 100 µM
TGI [2]: > 100 µM
TGI [4]: > 100 µM
TGI [5]: > 100 µM
TGI [6]: > 100 µM
TGI [7]: > 100 µM
TGI [8]: > 100 µM
TGI [15]: > 100 µM
TGI [9]: > 100 µM
TGI [10]: > 100 µM
TGI [11]: > 100 µM
TGI [12]: > 100 µM
TGI [13]: > 100 µM
TGI [16]: > 100 µM
TGI [14]: > 100 µM
TGI [17]: > 100 µM

COc1ccccc1N1C(=O)CS(=O)(=O)C1c1cccc(Oc2ccccc2)c1 (centres undefined)
TGI [1]: 22.2 µM
TGI [2]: 73.5 µM
TGI [3]: 24.7 µM
TGI [4]: 27.3 µM
TGI [5]: 64.3 µM
TGI [6]: 79.9 µM
TGI [7]: 30.7 µM
TGI [8]: 33.1 µM
TGI [15]: 49.2 µM
TGI [9]: 48.3 µM
TGI [10]: 34.9 µM
TGI [11]: 33.1 µM
TGI [12]: 61.7 µM
TGI [16]: 33.7 µM
TGI [14]: 31.8 µM
TGI [17]: 37.3 µM
